Values of other authors, collected in patent publication US20180116952A1, “ORAL PHARMACEUTICAL COMPOSITION OF METHYL[…] METHODS OF USE THEREOF” (Lupin Atlantis Holdings SA, priority 2015, published 2018).

Test system: patients with drug-induced refractory headache
Conditions: 60 consecutive patients with drug-induced refractory headache

For `CCC(CO)NC(=O)[C@@H]1C=C2c3cccc4[nH]cc(c34)C[C@H]2N(C)C1.O=C(O)/C=C\C(=O)O` (stereo partly shown) [methylergonovine, methylergonovine maleate], the “patients in whom methylergonovine was effective” value is listed as 73%.
